# Measurements as given in US4735651A, “Novel phytotoxic and plant growth regulating oligopeptide” (The United States of America as represented by the …, priority 1986, dated 1988).
# What was measured:
# [1] = test system: lettuce (Lactuca sativa) cv. Northern Lakes seedlings; experiment: Root growth bioassay of germinating lettuce seedlings; format: in vivo; conditions: lettuce seedling assay (L), 10^-6 M
# Method: (§1) Applicants' preferred embodiments of this invention comprises the incorporation of structural peptide backbone changes which increase conformational constraint, and vary the orientation of amino acid side chains when constrasted with naturally occurring amino acid sequences. […] Rooth growth inhibition/promotion was measured in germinating lettuce (Lactuca sativa) cv. Northern Lakes and curly cress (Lepidium sativum) seedling assays nominally used for screening herbicidal compounds and in a wheat coleoptile assay used for generally screening biological activity. Only compounds exerting measurable biological activities at 1×10^-6 M in concentration in the lettuce and cress assays and 1×10^-3 M in the wheat coleoptile are claimed.
# (§2) Aliquots of tested oligopeptide compounds of the type Formulas I-V were dissolved in ethyl acetate. One milliliter aliquots of the samples were pipetted onto a […] filter disk, dried, and placed in a Petri dish. One mL of distilled water was pipetted onto the filter paper and 15 lettuce seeds were uniformly distributed on the surface of the filter paper and allowed to imbibe in the dark at 20° to 25° C. for 24 h. The samples were subsequently placed in a growth chamber under continuous light at 28° C. for 72 h, and the root lengths were measured.
# (§3) During the course of these assays, visual assessment of seedling vigor was made in addition to root length measurements. […] Assessment of phytotoxicity was not confined to assessment of the root, but included any organ of the assay species.
# [2] = test system: curly cress (Lepidium sativum) seedlings; experiment: Root growth bioassay of germinating curly cress seedlings; format: in vivo; conditions: curly cress seedling assay (C), 10^-6 M
# Method: as §1, §2, §3
# [3] = test system: lettuce and cress seedlings; experiment: Lettuce and curly cress seedling assays, visual assessment and overall activity (species not split); format: in vivo, Lactuca sativa; Lepidium sativum; parameters: key to Phytotoxicity: +: designated as phytotoxic if they exhibited either chlorosis and/or necrosis of tissues when compared with untreated control plants; conditions: for Root growth inhibitor or promoter activity (in words): 10^-6 M; for Phytotoxicity: visual assessment of chlorosis and/or necrosis, any organ; for Phytotoxic properties observed (in words): visual assessment of seedlings
# Method: as §1, §2, §3
# [4] = test system: lettuce, potato, cucumber, spinach, radish, corn, tobacco; conditions: literature; cited from earlier work
# [5] = test system: susceptible maize hybrids; conditions: literature; cited from earlier work
compound,measurement,setting,value
"CCN(C(=O)[C@@H](CC(C)C)NC(=O)OC(C)(C)C)/C(=C\c1ccccc1)C(=O)NCC(=O)OC [Compound 7, Boc-D-Leu-N(C2 H5)Δ^z Phe-Gly-OMe]",% Root Growth Inhibitor (inhibition),[1],50%
same,% Root Growth Inhibitor (inhibition),[2],80%
"COC(=O)CNC(=O)/C(=C/c1ccccc1)N(C)C(=O)[C@H](CC(C)C)NC(=O)OC(C)(C)C [Compound 8, Boc-Leu-N(CH3)Δ^z Phe-Gly-OMe]",% Root Growth Inhibitor (inhibition),[1],60%
same,% Root Growth Inhibitor (inhibition),[2],50%
"COC(=O)CNC(=O)/C(=C/c1ccccc1)NC(=O)[C@@H](C)NC(=O)OC(C)(C)C [Compound 10, Boc-D-Ala-Δ^z Phe-Gly-OMe]",% Root Growth Inhibitor (inhibition),[1],40%
same,% Root Growth Inhibitor (inhibition),[2],20%
"COC(=O)CNC(=O)/C(=C/c1ccccc1)N(C)C(=O)[C@@H](NC(=O)OC(C)(C)C)C(C)C [Compound 12, Boc-Val-N(CH3)Δ^z Phe-Gly-OMe]",% Root Growth Inhibitor (inhibition),[2],85%
"CC(C)C[C@@H]1NC(=O)[C@H](C)N(C)C(=O)CNC(=O)/C(=C/c2ccccc2)N(C)C1=O [Compound 13, cyclo [L-Leucyl-N-methyl-(Z)-dehydrophenylalanyl-glycyl-N-methyl-L-alnyl]]",Root growth inhibitor or promoter activity (in words),[3],Not active as a inhibitor
same,Root growth inhibitor or promoter activity (in words),[3]; listed as tentoxin,none of the plant growth inhibiting or promoting properties
same,Phytotoxicity,[3],+
same,Phytotoxic properties observed (in words),[3],induces chlorosis in lettuce seedlings
same,Chlorosis induction,[4],"induces chlorosis in lettuce, potato, cucumber and spinach but not in radish, corn and some species of tobacco"
C[C@@H]1NC(=O)[C@H]2CCCN2C(=O)[C@H](CCCCCC(=O)[C@@H]2CO2)NC(=O)[C@@H](C)NC1=O [HC toxin],Root growth inhibition,[5],root growth inhibition of susceptible maize hybrids
Boc-N(CH3)-Ala-Leu-N(CH3)Δ^z Phe-Gly-OMe [Compound 5],Root growth inhibitor or promoter activity (in words),[3],active
same,Phytotoxicity,[3],+
same,Phytotoxic properties observed (in words),[3],root growth inhibition leading to early mortality
